The values below come from PubChem BioAssay (NCI).

Several values for one entry are separate records, joined by “and”; a condition that tells them apart may be missing. Identical values can stand only once.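 Assay format: 96-well plates, 48-hour exposure. GI50 = concentration required for 50% inhibition of growth. TGI: concentration producing complete growth inhibition.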

Some test systems named below: DMS 273 small cell lung; HS 578T breast; HT29 colon; KM12 colon; KM20L2 colon; NCI-H226 lung; OVCAR-5 ovarian; SW-620 colon; T-47D breast; U251 CNS.
Holding throughout (assay): NCI-60 cell line screen, 48 h

For `COc1cc2c(cc1OC)C(Cl)C(c1ccc(F)cc1)=C2Cl` (configuration not stated), the TGI in the assay on DMS 273 small cell lung was 31.9 µM; in the assay with HS 578T breast it was over 100 µM; in the assay on HT29 colon, 32.5 µM; with KM12 colon it was 32.3 µM; in the assay on KM20L2 colon it was 28 µM; in the assay on NCI-H226 lung, 74 µM. Moreover, the TGI in the assay on OVCAR-5 ovarian came out at 30.2 µM; in the assay with SW-620 colon, 30.4 µM; in the assay on T-47D breast it was 21.7 µM; with U251 CNS, 26.6 µM.

In the case of `CCOc1ccc(NC2=CC(=O)C(=O)c3ccccc32)cc1`, the TGI in the assay with DMS 273 small cell lung turned out to be 8.01 µM; in the assay with HS 578T breast, 5.9 µM; in the assay with HT29 colon it was 15.8 µM; in the assay with KM12 colon it was 12.2 µM; with KM20L2 colon, 36.7 µM; with NCI-H226 lung, 13.3 µM. The TGI in the assay on OVCAR-5 ovarian amounted to 9.46 µM; in the assay on SW-620 colon, 3.53 µM; with T-47D breast, 27.9 µM; in the assay on U251 CNS it was 13.1 µM.

`CCC(C)SC1SCC2C(=O)N(C)C3(CC3C)C(=O)OCC(NC(=O)c3nc4ccccc4cc3O)C(=O)NC(C)C(=O)N(C)C1C(=O)N(C)C1(CC1C)C(=O)OCC(NC(=O)c1nc3ccccc3cc1O)C(=O)NC(C)C(=O)N2C` (configuration not stated): the TGI in the assay with DMS 273 small cell lung is 0.000123 µM; with HS 578T breast, 0.000309 µM; in the assay with HT29 colon it was 0.00788 µM; in the assay on KM12 colon, 0.000397 µM; in the assay on KM20L2 colon it was 0.000446 µM; in the assay with NCI-H226 lung it was 0.000892 µM. For the same compound, the TGI was 0.00256 µM with OVCAR-5 ovarian; 0.00439 µM and < 0.034 µM in the assay with SW-620 colon; 0.00514 µM in the assay on T-47D breast; 0.0172 µM with U251 CNS. The figures for the GI50 with HT29 colon and in the assay with KM12 colon were 14.8 pM and 52.4 pM, respectively.
